#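 These data come from cells grown in 96-well plates and exposed to compound for 48 hours at five concentrations. At the TGI there is no net growth.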
# Columns and labels:
# Test in all cases: DTP human tumour cell line panel, 48 h
# CCRF-CEM leukemia = test system: CCRF-CEM leukemia
# MCF7 breast = test system: MCF7 breast
# EKVX NSCLC = test system: EKVX NSCLC
# SW-620 colon = test system: SW-620 colon
# SK-MEL-5 melanoma = test system: SK-MEL-5 melanoma
# SNB-19 CNS = test system: SNB-19 CNS
# SK-OV-3 ovarian = test system: SK-OV-3 ovarian
# SF-295 CNS = test system: SF-295 CNS
# LOX IMVI melanoma = test system: LOX IMVI melanoma
# HCT-116 colon = test system: HCT-116 colon
# NCI/ADR-RES ovarian = test system: NCI/ADR-RES ovarian
# T-47D breast = test system: T-47D breast
# HCT-15 colon = test system: HCT-15 colon
# SK-MEL-28 melanoma = test system: SK-MEL-28 melanoma
# DU-145 prostate = test system: DU-145 prostate
# HL-60(TB) leukemia = test system: HL-60(TB) leukemia
# OVCAR-8 ovarian = test system: OVCAR-8 ovarian
# A498 renal = test system: A498 renal
# PC-3 prostate = test system: PC-3 prostate
# HOP-62 NSCLC = test system: HOP-62 NSCLC
# NCI-H522 lung = test system: NCI-H522 lung
# NCI-H226 lung = test system: NCI-H226 lung
# IGROV1 ovarian = test system: IGROV1 ovarian
# K-562 leukemia = test system: K-562 leukemia
# BT-549 breast = test system: BT-549 breast
# COLO 205 colon = test system: COLO 205 colon
# NCI-H23 lung = test system: NCI-H23 lung
# RPMI-8226 leukemia = test system: RPMI-8226 leukemia
# A549 NSCLC = test system: A549 NSCLC
# MDA-MB-435 = test system: MDA-MB-435
# UACC-257 melanoma = test system: UACC-257 melanoma
# OVCAR-5 ovarian = test system: OVCAR-5 ovarian
# M14 melanoma = test system: M14 melanoma
# SR leukemia = test system: SR leukemia
# OVCAR-4 ovarian = test system: OVCAR-4 ovarian
# HOP-92 NSCLC = test system: HOP-92 NSCLC
# SF-539 CNS = test system: SF-539 CNS
# SN12C renal = test system: SN12C renal
# UACC-62 melanoma = test system: UACC-62 melanoma
# SNB-75 CNS = test system: SNB-75 CNS
# KM12 colon = test system: KM12 colon
# NCI-H460 lung = test system: NCI-H460 lung
# SF-268 CNS = test system: SF-268 CNS
# HCC-2998 colon = test system: HCC-2998 colon
# UO-31 renal = test system: UO-31 renal
# ACHN renal = test system: ACHN renal
# TK-10 renal = test system: TK-10 renal
# U251 CNS = test system: U251 CNS
# MOLT-4 leukemia = test system: MOLT-4 leukemia
# MDA-N = test system: MDA-N
# SK-MEL-2 melanoma = test system: SK-MEL-2 melanoma
# MALME-3M melanoma = test system: MALME-3M melanoma
# RXF 393 renal = test system: RXF 393 renal
# OVCAR-3 ovarian = test system: OVCAR-3 ovarian
# MDA-MB-231 breast = test system: MDA-MB-231 breast
# HT29 colon = test system: HT29 colon
# CAKI-1 renal = test system: CAKI-1 renal
# 786-0 renal = test system: 786-0 renal
# HS 578T breast = test system: HS 578T breast
compound,measurement,setting,value
O=C1/C(=C/c2ccc3c(c2)CCC3)Cc2cc3c(cc21)CCC3,TGI,CCRF-CEM leukemia,> 100 µM
same,TGI,MCF7 breast,> 100 µM
same,TGI,EKVX NSCLC,> 100 µM
same,TGI,SW-620 colon,> 100 µM
same,TGI,SK-MEL-5 melanoma,> 100 µM
same,TGI,SNB-19 CNS,> 100 µM
same,TGI,SK-OV-3 ovarian,> 100 µM
same,TGI,SF-295 CNS,> 100 µM
same,TGI,LOX IMVI melanoma,> 100 µM
same,TGI,HCT-116 colon,> 100 µM
same,TGI,NCI/ADR-RES ovarian,> 100 µM
same,TGI,T-47D breast,> 100 µM
same,TGI,HCT-15 colon,> 100 µM
same,TGI,SK-MEL-28 melanoma,> 100 µM
same,TGI,DU-145 prostate,> 100 µM
same,TGI,HL-60(TB) leukemia,> 100 µM
same,TGI,OVCAR-8 ovarian,> 100 µM
same,TGI,A498 renal,> 100 µM
same,TGI,PC-3 prostate,> 100 µM
same,TGI,HOP-62 NSCLC,> 100 µM
same,TGI,NCI-H522 lung,> 100 µM
same,TGI,NCI-H226 lung,> 100 µM
same,TGI,IGROV1 ovarian,> 100 µM
same,TGI,K-562 leukemia,> 100 µM
same,TGI,BT-549 breast,> 100 µM
same,TGI,COLO 205 colon,> 100 µM
same,TGI,NCI-H23 lung,> 100 µM
same,TGI,RPMI-8226 leukemia,> 100 µM
same,TGI,A549 NSCLC,> 100 µM
same,TGI,MDA-MB-435,> 100 µM
same,TGI,UACC-257 melanoma,> 100 µM
same,TGI,OVCAR-5 ovarian,> 100 µM
same,TGI,M14 melanoma,> 100 µM
same,TGI,SR leukemia,> 100 µM
same,TGI,OVCAR-4 ovarian,> 100 µM
same,TGI,HOP-92 NSCLC,97.6 µM
same,TGI,SF-539 CNS,> 100 µM
same,TGI,SN12C renal,> 100 µM
same,TGI,UACC-62 melanoma,> 100 µM
same,TGI,SNB-75 CNS,> 100 µM
same,TGI,KM12 colon,> 100 µM
same,TGI,NCI-H460 lung,> 100 µM
same,TGI,SF-268 CNS,> 100 µM
same,TGI,HCC-2998 colon,> 100 µM
same,TGI,UO-31 renal,> 100 µM
same,TGI,ACHN renal,> 100 µM
same,TGI,TK-10 renal,> 100 µM
same,TGI,U251 CNS,> 100 µM
same,TGI,MOLT-4 leukemia,> 100 µM
same,TGI,MDA-N,> 100 µM
same,TGI,SK-MEL-2 melanoma,> 100 µM
same,TGI,MALME-3M melanoma,> 100 µM
same,TGI,RXF 393 renal,> 100 µM
same,TGI,OVCAR-3 ovarian,> 100 µM
same,TGI,MDA-MB-231 breast,> 100 µM
same,TGI,HT29 colon,> 100 µM
CCN(CC)CCCNc1nc2ccccc2[n+]([O-])n1,TGI,CCRF-CEM leukemia,> 100 µM
same,TGI,MCF7 breast,> 100 µM
same,TGI,SW-620 colon,> 100 µM
same,TGI,SK-MEL-5 melanoma,> 100 µM
same,TGI,SNB-19 CNS,> 100 µM
same,TGI,SF-295 CNS,> 100 µM
same,TGI,HCT-116 colon,> 100 µM
same,TGI,NCI/ADR-RES ovarian,> 100 µM
same,TGI,T-47D breast,> 100 µM
same,TGI,HCT-15 colon,> 100 µM
same,TGI,SK-MEL-28 melanoma,> 100 µM
same,TGI,DU-145 prostate,> 100 µM
same,TGI,HL-60(TB) leukemia,> 100 µM
same,TGI,OVCAR-8 ovarian,> 100 µM
same,TGI,A498 renal,> 100 µM
same,TGI,PC-3 prostate,> 100 µM
same,TGI,NCI-H522 lung,> 100 µM
same,TGI,NCI-H226 lung,> 100 µM
same,TGI,IGROV1 ovarian,> 100 µM
same,TGI,K-562 leukemia,> 100 µM
same,TGI,BT-549 breast,> 100 µM
same,TGI,COLO 205 colon,> 100 µM
same,TGI,CAKI-1 renal,> 100 µM
same,TGI,NCI-H23 lung,> 100 µM
same,TGI,RPMI-8226 leukemia,> 100 µM
same,TGI,A549 NSCLC,> 100 µM
same,TGI,MDA-MB-435,> 100 µM
same,TGI,UACC-257 melanoma,> 100 µM
same,TGI,OVCAR-5 ovarian,> 100 µM
same,TGI,M14 melanoma,> 100 µM
same,TGI,786-0 renal,> 100 µM
same,TGI,SR leukemia,> 100 µM
same,TGI,OVCAR-4 ovarian,> 100 µM
same,TGI,HOP-92 NSCLC,> 100 µM
same,TGI,SF-539 CNS,> 100 µM
same,TGI,SN12C renal,> 100 µM
same,TGI,UACC-62 melanoma,> 100 µM
same,TGI,SNB-75 CNS,> 100 µM
same,TGI,KM12 colon,> 100 µM
same,TGI,NCI-H460 lung,> 100 µM
same,TGI,SF-268 CNS,> 100 µM
same,TGI,HCC-2998 colon,> 100 µM
same,TGI,UO-31 renal,> 100 µM
same,TGI,ACHN renal,> 100 µM
same,TGI,TK-10 renal,> 100 µM
same,TGI,U251 CNS,> 100 µM
same,TGI,MOLT-4 leukemia,> 100 µM
same,TGI,MDA-N,> 100 µM
same,TGI,SK-MEL-2 melanoma,> 100 µM
same,TGI,MALME-3M melanoma,> 100 µM
same,TGI,RXF 393 renal,> 100 µM
same,TGI,OVCAR-3 ovarian,> 100 µM
same,TGI,MDA-MB-231 breast,> 100 µM
same,TGI,HT29 colon,> 100 µM
CN(C)CCCNC(=O)CCNC(=O)c1cc(NC(=O)c2cc(NC(=O)c3cc(NC(=O)CCCNC(=O)c4cc(NC(=O)c5cc(NC(=O)c6nccn6C)cn5C)cn4C)cn3C)cn2C)cn1C,TGI,CCRF-CEM leukemia,> 100 µM
same,TGI,MCF7 breast,> 100 µM
same,TGI,EKVX NSCLC,> 100 µM
same,TGI,SW-620 colon,> 100 µM
same,TGI,HS 578T breast,> 100 µM
same,TGI,SK-MEL-5 melanoma,> 100 µM
same,TGI,SNB-19 CNS,> 100 µM
same,TGI,SK-OV-3 ovarian,> 100 µM
same,TGI,SF-295 CNS,> 100 µM
same,TGI,LOX IMVI melanoma,> 100 µM
same,TGI,HCT-116 colon,> 100 µM
same,TGI,NCI/ADR-RES ovarian,> 100 µM
same,TGI,HCT-15 colon,> 100 µM
same,TGI,SK-MEL-28 melanoma,> 100 µM
same,TGI,HL-60(TB) leukemia,> 100 µM
same,TGI,OVCAR-8 ovarian,> 100 µM
same,TGI,A498 renal,> 100 µM
same,TGI,PC-3 prostate,> 100 µM
same,TGI,HOP-62 NSCLC,> 100 µM
same,TGI,NCI-H522 lung,> 100 µM
same,TGI,NCI-H226 lung,> 100 µM
same,TGI,IGROV1 ovarian,> 100 µM
same,TGI,K-562 leukemia,> 100 µM
same,TGI,COLO 205 colon,> 100 µM
same,TGI,CAKI-1 renal,> 100 µM
same,TGI,NCI-H23 lung,> 100 µM
same,TGI,RPMI-8226 leukemia,> 100 µM
same,TGI,A549 NSCLC,> 100 µM
same,TGI,MDA-MB-435,> 100 µM
same,TGI,UACC-257 melanoma,> 100 µM
same,TGI,OVCAR-5 ovarian,> 100 µM
same,TGI,M14 melanoma,> 100 µM
same,TGI,786-0 renal,> 100 µM
same,TGI,OVCAR-4 ovarian,> 100 µM
same,TGI,HOP-92 NSCLC,> 100 µM
same,TGI,SF-539 CNS,> 100 µM
same,TGI,SN12C renal,> 100 µM
same,TGI,SNB-75 CNS,> 100 µM
same,TGI,KM12 colon,> 100 µM
same,TGI,NCI-H460 lung,> 100 µM
same,TGI,SF-268 CNS,> 100 µM
same,TGI,HCC-2998 colon,> 100 µM
same,TGI,UO-31 renal,> 100 µM
same,TGI,ACHN renal,> 100 µM
same,TGI,TK-10 renal,> 100 µM
same,TGI,U251 CNS,> 100 µM
same,TGI,MOLT-4 leukemia,> 100 µM
same,TGI,MDA-N,> 100 µM
same,TGI,SK-MEL-2 melanoma,> 100 µM
same,TGI,MALME-3M melanoma,> 100 µM
same,TGI,RXF 393 renal,> 100 µM
same,TGI,OVCAR-3 ovarian,> 100 µM
same,TGI,MDA-MB-231 breast,> 100 µM
same,TGI,HT29 colon,> 100 µM

# From PubChem BioAssay (NCI)
